Measured values taken from patent US20260125382A1, “COMPOUNDS FOR INHIBITING OR DEGRADING CDK2 AND/OR CDK9 AND MEDICINAL USE THEREOF” (KOREA RESEARCH INSTITUTE OF CHEMICAL TECHNOLOGY, priority 2022, published 2026).

Legend:
CDK9 = biological target: T1, CDK9 (Homo sapiens, UniProt P50750); test: CDK protein degradation activity (Western blotting), CDK9; type: cell-based; conditions: MDA-MB-231 cells, 16 hours, Western blot
T1 construct: endogenous in cells; host or cells: MDA-MB-231
Summary of the method: (§1)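 MDA-MB-231 cells treated 16 h with compound at 100 nM, 1 μM or 10 μM, with DMSO as control. Lysates run on SDS-PAGE and immunoblotted for CDK2, CDK9 and tubulin; band levels quantified by densitometry.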

CDK2 = biological target: T2, CDK2 (Homo sapiens, UniProt P24941); test: CDK protein degradation activity (Western blotting), CDK2; type: cell-based; conditions: MDA-MB-231 cells, 16 hours, Western blot
T2 construct: endogenous in cells; host or cells: MDA-MB-231
Summary of the method: as §1

T1 sequence (P50750 whole entry): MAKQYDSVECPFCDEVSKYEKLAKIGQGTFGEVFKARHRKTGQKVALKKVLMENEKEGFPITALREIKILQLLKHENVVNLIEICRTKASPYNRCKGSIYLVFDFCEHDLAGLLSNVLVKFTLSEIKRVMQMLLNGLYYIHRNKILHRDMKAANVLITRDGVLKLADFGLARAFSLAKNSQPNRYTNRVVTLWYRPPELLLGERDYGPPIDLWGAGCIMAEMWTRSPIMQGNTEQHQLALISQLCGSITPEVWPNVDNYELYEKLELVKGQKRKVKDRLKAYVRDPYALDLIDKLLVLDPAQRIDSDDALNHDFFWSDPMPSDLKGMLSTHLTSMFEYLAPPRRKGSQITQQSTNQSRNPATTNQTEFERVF

Compound | Enzyme degradation CDK9 (% remaining) @ 0.1 μM (CDK9) | Enzyme degradation CDK9 (% remaining) @ 1 μM (CDK9) | Enzyme degradation CDK9 (% remaining) @ 10 μM (CDK9) | Enzyme degradation CDK2 (% remaining) @ 0.1 μM (CDK2) | Enzyme degradation CDK2 (% remaining) @ 1 μM (CDK2) | Enzyme degradation CDK2 (% remaining) @ 10 μM (CDK2)
O=C1CCN(c2coc3cc(C(=O)N4CCC5(CC4)CC(N4CCN(c6ccc(Nc7ncnc8c7ncn8[C@H]7C[C@@H](NC(=O)Cc8ccccc8)C7)cc6)CC4)C5)ccc23)C(=O)N1 [Compound 191, N-((1s,3s)-3-(6-((4-(4-(7-(3-(2,4-dioxotetrahydropyrimidin-1(2H)-yl)benzofuran-6-carbonyl)-7-azaspiro[3.5]nonan-2-yl)piperazin-1-yl)phenyl)amino)-9H-purin-9-yl)cyclobutyl)-2-phenylacetamide] | 0/0/0% | 0/0/0% | 0/0/0% | 0/0/0% | 0/0/0% | 0/0/0%
O=C1CC[C@H](N2C(=O)C=C(Nc3cccc(CC(=O)N4CCC5(CC4)CC(N4CCN(c6ccc(Nc7ncnc8c7ncn8[C@H]7C[C@@H](NC(=O)Cc8ccccc8)C7)cc6)CC4)C5)c3)C2=O)C(=O)N1 [Compound 192, N-((1s,3s)-3-(6-((4-(4-(7-(2-(3-((1-(2,6-dioxopiperidin-3-yl)-2,5-dioxo-2,5-dihydro-1H-pyrrol-3-yl)amino)phenyl)acetyl)-7-azaspiro[3.5]nonan-2-yl)piperazin-1-yl)phenyl)amino)-9H-purin-9-yl)cyclobutyl)-2-phenylacetamide] | 20% | 20% | 10% | 70% | 70% | 50%
O=C1CC[C@H](N2C(=O)C=C(N3CCC(C(=O)N4CCC5(CC4)CC(N4CCN(c6ccc(Nc7ncnc8c7ncn8C7CC(NC(=O)Cc8ccccc8)C7)cc6)CC4)C5)CC3)C2=O)C(=O)N1 (stereo partly drawn) [Compound 193, N-((1s,3s)-3-(6-((4-(4-(7-(1-(1-(2,6-dioxopiperidin-3-yl)-2,5-dioxo-2,5-dihydro-1H-pyrrol-3-yl)piperidin-4-carbonyl)-7-azaspiro[3.5]nonan-2-yl)piperazin-1-yl)phenyl)amino)-9H-purin-9-yl)cyclobutyl)-2-phenylacetamide] | 0% | 10% | 10% | 20% | 20% | 10%
COc1ccc(C(=O)N2CCC(CC(=O)N3CCN(c4ccc(Nc5ncnc6c5ncn6[C@H]5C[C@@H](NC(=O)Cc6ccccc6)C5)cc4)CC3)CC2)cc1N1CCC(=O)NC1=O [Compound 194, N-((1s,3s)-3-(6-((4-(4-(2-(1-(3-(2,4-dioxotetrahydropyrimidin-1(2H)-yl)-4-methoxybenzoyl)piperidin-4-yl)acetyl)piperazin-1-yl)phenyl)amino)-9H-purin-9-yl)cyclobutyl)-2-phenylacetamide] | 70% | 50% | 40% | 50% | 10% | 10%
O=C1CCN(c2coc3cc(C(=O)N4CCC(CC(=O)N5CCN(c6ccc(Nc7ncnc8c7ncn8[C@H]7C[C@@H](NC(=O)Cc8ccccc8)C7)cc6)CC5)CC4)ccc23)C(=O)N1 [Compound 195, N-((1s,3s)-3-(6-((4-(4-(2-(1-(3-(2,4-dioxotetrahydropyrimidin-1(2H)-yl)benzofuran-6-carbonyl)piperidin-4-yl)acetyl)piperazin-1-yl)phenyl)amino)-9H-purin-9-yl)cyclobutyl)-2-phenylacetamide] | 20% | 10% | 10% | 80% | 50% | 50%
O=C1CC[C@H](N2C(=O)C=C(Nc3cccc(CC(=O)N4CCC(CC(=O)N5CCN(c6ccc(Nc7ncnc8c7ncn8[C@H]7C[C@@H](NC(=O)Cc8ccccc8)C7)cc6)CC5)CC4)c3)C2=O)C(=O)N1 [Compound 196, N-((1s,3s)-3-(6-((4-(4-(2-(1-(2-(3-((1-(2,6-dioxopiperidin-3-yl)-2,5-dioxo-2,5-dihydro-1H-pyrrol-3-yl)amino)phenyl)acetyl)piperidin-4-yl)acetyl)piperazin-1-yl)phenyl)amino)-9H-purin-9-yl)cyclobutyl)-2-phenylacetamide] | 30% | 40% | 40% | 80% | 100% | 100%
O=C1CC[C@H](N2C(=O)C=C(N3CCC(C(=O)N4CCC(CC(=O)N5CCN(c6ccc(Nc7ncnc8c7ncn8[C@H]7C[C@@H](NC(=O)Cc8ccccc8)C7)cc6)CC5)CC4)CC3)C2=O)C(=O)N1 [Compound 197, N-((1s,3s)-3-(6-((4-(4-(2-(1-(1-(1-(2,6-dioxopiperidin-3-yl)-2,5-dioxo-2,5-dihydro-1H-pyrrol-3-yl)piperidin-4-carbonyl)piperidin-4-yl)acetyl)piperazin-1-yl)phenyl)amino)-9H-purin-9-yl)cyclobutyl)-2-phenylacetamide] | 10% | 10% | 0% | 30/30/30% | 30/30/30% | 30/30/30%
COc1ccc(C(=O)NC[C@H]2CC[C@H](CN3CCN(c4ccc(Nc5ncnc6c5ncn6[C@H]5C[C@@H](NC(=O)Cc6ccccc6)C5)cc4)CC3)CC2)cc1N1CCC(=O)NC1=O [Compound 198, 3-(2,4-dioxotetrahydropyrimidin-1(2H)-yl)-4-methoxy-N-(((1r,4r)-4-((4-(4-((9-((1s,3s)-3-(2-phenylacetamido)cyclobutyl)-9H-purin-6-yl)amino)phenyl)piperazin-1-yl)methyl)cyclohexyl)methyl)benzamide] | 50% | 30% | 10% | 0/0/0% | 0/0/0% | 0/0/0%
O=C1CCN(c2coc3cc(C(=O)NC[C@H]4CC[C@H](CN5CCN(c6ccc(Nc7ncnc8c7ncn8[C@H]7C[C@@H](NC(=O)Cc8ccccc8)C7)cc6)CC5)CC4)ccc23)C(=O)N1 [Compound 199, 3-(2,4-dioxotetrahydropyrimidin-1(2H)-yl)-N-(((1r,4r)-4-((4-(4-((9-((1s,3s)-3-(2-phenylacetamido)cyclobutyl)-9H-purin-6-yl)amino)phenyl)piperazin-1-yl)methyl)cyclohexyl)methyl)benzofuran-6-carboxamide] | 20% | 30% | 30% | 50% | 60% | 50%
O=C(Cc1cccc(NC2=CC(=O)N(C3CCC(=O)NC3=O)C2=O)c1)NC[C@H]1CC[C@H](CN2CCN(c3ccc(Nc4ncnc5c4ncn5[C@H]4C[C@@H](NC(=O)Cc5ccccc5)C4)cc3)CC2)CC1 (stereo partly drawn) [Compound 200, 2-(3-((1-(2,6-dioxopiperidin-3-yl)-2,5-dioxo-2,5-dihydro-1H-pyrrol-3-yl)amino)phenyl)-N-(((1r,4r)-4-((4-(4-((9-((1s,3s)-3-(2-phenylacetamido)cyclobutyl)-9H-purin-6-yl)amino)phenyl)piperazin-1-yl)methyl)cyclohexyl)methyl)acetamide] | 20/20/20% | 20/20/20% | 20/20/20% | 100/100/100% | 100/100/100% | 100/100/100%
O=C1CCC(N2C(=O)C=C(N3CCC(C(=O)NC[C@H]4CC[C@H](CN5CCN(c6ccc(Nc7ncnc8c7ncn8[C@H]7C[C@@H](NC(=O)Cc8ccccc8)C7)cc6)CC5)CC4)CC3)C2=O)C(=O)N1 (stereo partly drawn) [Compound 201, 1-(1-(2,6-dioxopiperidin-3-yl)-2,5-dioxo-2,5-dihydro-1H-pyrrol-3-yl)-N-(((1r,4r)-4-((4-(4-((9-((1s,3s)-3-(2-phenylacetamido)cyclobutyl)-9H-purin-6-yl)amino)phenyl)piperazin-1-yl)methyl)cyclohexyl)methyl)piperidin-4-carboxamide] | 10% | 10% | 0% | 50% | 70% | 50%
